PMC11945486, “TAS1R2/TAS1R3 Single-Nucleotide Polymorphisms Affect Sweet Taste Receptor Activation by Sweeteners: The SWEET Project” (Nutrients, 2025)
No end group written: not given here.

T1: human TAS1R2-I191V/TAS1R3-WT (Homo sapiens, UniProt Q7RTX0+Q8TE23, I191V)
T1 construct: expressed in transfected cells; host or cells: HEK293T-Gα16gust44
T1 sequence (Q8TE23 20-839 I191V): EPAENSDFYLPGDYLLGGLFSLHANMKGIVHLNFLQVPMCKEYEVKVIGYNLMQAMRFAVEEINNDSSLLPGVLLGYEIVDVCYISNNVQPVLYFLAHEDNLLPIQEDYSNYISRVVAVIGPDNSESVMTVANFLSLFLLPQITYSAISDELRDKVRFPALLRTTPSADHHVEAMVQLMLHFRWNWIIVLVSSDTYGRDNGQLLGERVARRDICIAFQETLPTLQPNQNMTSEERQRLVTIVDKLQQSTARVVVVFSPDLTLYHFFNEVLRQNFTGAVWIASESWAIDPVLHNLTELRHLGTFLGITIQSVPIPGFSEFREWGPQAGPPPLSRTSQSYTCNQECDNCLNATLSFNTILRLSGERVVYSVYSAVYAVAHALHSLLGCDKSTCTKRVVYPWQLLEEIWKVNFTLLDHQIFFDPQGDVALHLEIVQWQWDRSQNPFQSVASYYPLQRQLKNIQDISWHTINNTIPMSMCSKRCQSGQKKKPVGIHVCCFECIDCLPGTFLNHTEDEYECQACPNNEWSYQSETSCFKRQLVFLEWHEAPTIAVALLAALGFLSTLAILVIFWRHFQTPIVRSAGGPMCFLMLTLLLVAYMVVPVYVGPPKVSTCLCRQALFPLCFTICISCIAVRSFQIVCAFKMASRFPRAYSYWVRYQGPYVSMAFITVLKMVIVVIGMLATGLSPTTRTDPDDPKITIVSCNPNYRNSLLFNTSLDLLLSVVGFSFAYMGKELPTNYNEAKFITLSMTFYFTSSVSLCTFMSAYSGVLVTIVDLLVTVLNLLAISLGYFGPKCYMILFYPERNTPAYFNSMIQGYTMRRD
T1 sequence (Q7RTX0 21-852): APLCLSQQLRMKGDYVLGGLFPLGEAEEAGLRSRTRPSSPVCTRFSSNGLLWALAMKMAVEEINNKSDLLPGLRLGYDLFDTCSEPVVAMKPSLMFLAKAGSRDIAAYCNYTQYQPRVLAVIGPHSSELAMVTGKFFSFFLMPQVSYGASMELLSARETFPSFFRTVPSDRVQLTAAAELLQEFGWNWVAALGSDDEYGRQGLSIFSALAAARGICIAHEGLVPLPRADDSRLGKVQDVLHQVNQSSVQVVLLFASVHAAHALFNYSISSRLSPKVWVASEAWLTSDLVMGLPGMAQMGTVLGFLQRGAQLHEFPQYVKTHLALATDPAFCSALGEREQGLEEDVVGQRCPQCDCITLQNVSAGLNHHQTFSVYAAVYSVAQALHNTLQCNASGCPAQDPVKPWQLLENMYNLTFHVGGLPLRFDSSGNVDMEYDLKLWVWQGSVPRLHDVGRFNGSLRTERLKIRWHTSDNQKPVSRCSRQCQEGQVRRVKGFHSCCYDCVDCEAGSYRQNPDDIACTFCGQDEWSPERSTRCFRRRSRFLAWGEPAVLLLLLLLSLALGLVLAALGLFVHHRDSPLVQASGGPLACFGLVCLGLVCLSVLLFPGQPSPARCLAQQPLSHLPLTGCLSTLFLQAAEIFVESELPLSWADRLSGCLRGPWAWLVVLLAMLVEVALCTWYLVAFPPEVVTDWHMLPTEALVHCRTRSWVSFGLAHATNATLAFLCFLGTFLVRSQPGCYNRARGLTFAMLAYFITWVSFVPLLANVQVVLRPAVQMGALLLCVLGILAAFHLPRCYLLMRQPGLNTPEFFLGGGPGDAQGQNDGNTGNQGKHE

B1: thaumatin (protein)
chain: ATFEIVNRCSYTVWAAASKGDAALDAGGRQLNSGESWTINVEPGTKGGKIWARTDCYFDDSGSGICKTGDCGGLLRCKRFGRPPTTLAEFSLNQYGKDYIDISNIKGFNVPMDFSPTTRGCRGVRCAADIVGQCPAKLKAPGGGCNDACTVFQTSEYCCTTGKCGPTEYSRFFKRLCPDAFSYVLDKPTTVTCPGSSNYRVTFCPTA
modifications: Eight disulfides
notes: sweet-tasting plant protein, E957

Target: T1, human TAS1R2-I191V/TAS1R3-WT
Test: Calcium mobilisation assay, TAS1R2 variant I191V with TAS1R3-WT
Format: cell-based
Details: for Max ΔF/F0: maximal signal amplitude
Excerpt: The coding sequences for TAS1R2 and TAS1R3 were commercially synthesised, and the human codon was optimised for expression in human cells. The coding sequences of human TAS1R2 and TAS1R3 were subcloned and inserted into the mammalian expression vectors pcDNA6/myc-HisA and pcDNA4/myc-HisA (Invitrogen; Thermo Fisher Scientific; Illkirch, France) between the EcoRI and NotI restriction sites, generating the plasmids pcDNA6-TAS1R2 and pcDNA4-TAS1R3, respectively. To increase protein expression in mammalian cells, an upstream start codon was used, which was a sequence called MAX, corresponding to the QBI SP163 element also described in pcDNA4-HisMax (Invitrogen; Thermo Fisher Scientific; Illkirch, France). To measure the expression level of the receptor by immunohistochemistry, we used the FLAG sequence ([…]) in the C-terminal position, which encodes the FLAG tag epitope. SNP variants of TAS1R2 and TAS1R3 were constructed based on […], respectively, using site-directed mutagenesis (Genewiz; Leipzig, Germany).
The HEK293T cells were kindly provided by Jay P. Slack (Givaudan Flavors Corporation; Cincinnati, OH, USA). HEK293T cells stably transfected with Gα16gust44 [43, 67] were seeded in poly-D-lysine-coated clear-bottom black 96-well plates (0.35 × 10^5 cells/well) in high-glucose DMEM supplemented with 2 mM GlutaMAX, 10% dialysed foetal bovine serum with penicillin/streptomycin and G418 (400 μg/mL) at 37 °C and 6.3% CO2 in a humidified atmosphere as previously reported. […] As a negative control, HEK293T cells were mock-transfected with the empty expression vector. After a further 24 h of incubation, the HEK293T cells were washed with C1 buffer (130 mM NaCl, 5 mM KCl, 10 mM HEPES pH 7.4 and 2 mM CaCl2). The 96-well plates containing the cells were then stimulated with sweet-tasting compounds. […] Different concentration ranges were tested depending on the sweet compound injected. The Ca^2+ changes were expressed as fractional changes in fluorescent light intensity: ΔF/F = (F − F0)/F0, where F was the fluorescent light intensity at each point, and F0 was the value of emitted fluorescent light prior to stimulus application. To calculate dose–response relationships, the changes in fluorescence upon stimulus application were averaged, mock-subtracted and baseline-corrected. The dose–response data obtained were adjusted using a 4-parameter logistic equation. The half-maximal effective concentrations (EC50 values) and maximal signal amplitudes were calculated using SigmaPlot software (version 15.0) (Systat Software; San Jose, CA, USA).
For in vitro calcium mobilisation assay performed on hTAS1R2-SNPs, hTAS1R3-SNPs and mTAS1R3-I60T, 6 to 7 concentrations were tested for each sweet compound, plus buffer alone. All concentration–receptor combinations were measured in duplicate, and each experiment was repeated at least 4 times (8 wells/concentration). Results were expressed for each concentration as ΔF/F mean ± SEM and represented as dose–response curves.

Molecule	EC50 [µM]	R1 = Variant EC50/WT EC50	Max ΔF/F0
CC1=CC(=O)NS(=O)(=O)O1 [Acesulfame K, acesulfame K]	492 ± 30	0.7	0.27 ± 0.01
O=S(=O)(O)NC1CCCCC1 [Cyclamate, cyclamate]	2020 ± 31	–	–
C[C@H](CC[C@@H](O[C@@H]1O[C@H](CO[C@@H]2O[C@H](CO)[C@@H](O)[C@H](O)[C@H]2O)[C@@H](O)[C@H](O)[C@H]1O[C@@H]1O[C@H](CO)[C@@H](O)[C@H](O)[C@H]1O)C(C)(C)O)[C@H]1CC[C@@]2(C)[C@@H]3CC=C4[C@@H](CC[C@H](O[C@@H]5O[C@H](CO[C@@H]6O[C@H](CO)[C@@H](O)[C@H](O)[C@H]6O)[C@@H](O)[C@H](O)[C@H]5O)C4(C)C)[C@]3(C)[C@H](O)C[C@]12C [Mogroside V, mogroside V]	19.2 ± 1.7	1.1	1.33 ± 0.04
COc1ccc(CCC(=O)c2c(O)cc(O[C@@H]3O[C@H](CO)[C@@H](O)[C@H](O)[C@H]3O[C@@H]3O[C@@H](C)[C@H](O)[C@@H](O)[C@H]3O)cc2O)cc1O [NHDC, neohesperidin dihydrochalcone]	109 ± 4.6	1.4	0.73 ± 0.01
COC(=O)[C@H](Cc1ccccc1)NC(=O)[C@H](CC(=O)O)NCCC(C)(C)C [Neotame]	0.84 ± 0.08	1.0	0.64 ± 0.02
C=C(C)[C@@H]1CC=C(/C=N/O)CC1 [Perillartine, perillartine]	27.9 ± 0.5	1.6	1.27 ± 0.01
C=C1C[C@@]23CC[C@H]4[C@@](C)(CCC[C@@]4(C)C(=O)O[C@@H]4O[C@H](CO)[C@@H](O)[C@H](O[C@@H]5O[C@H](CO)[C@@H](O)[C@H](O)[C@H]5O)[C@H]4O[C@@H]4O[C@H](CO)[C@@H](O)[C@H](O)[C@H]4O)[C@@H]2CC[C@]1(O[C@@H]1O[C@H](CO)[C@@H](O)[C@H](O[C@@H]2O[C@H](CO)[C@@H](O)[C@H](O)[C@H]2O)[C@H]1O[C@@H]1O[C@H](CO)[C@@H](O)[C@H](O)[C@H]1O)C3 [Rebaudioside M, rebaudioside M]	21 ± 0.4	1.2	1.10 ± 0.01
OC[C@H]1O[C@H](O[C@]2(CCl)O[C@H](CCl)[C@@H](O)[C@@H]2O)[C@H](O)[C@@H](O)[C@H]1Cl [Sucralose]	87 ± 7	1.0	0.52 ± 0.02
brazzein (QDKCKKVYENYPVSKCQLANQCNYDCKLDKHARSGECFYDEKRNLQCICDYCEY; ends and bridges not checked; cysteine pairing not given here; UniProt P56552 1-54, looked up) [sweet-tasting protein obtained by recombinant production using the yeast Pichia pastoris]	–	1.7	1.12 ± 0.02
thaumatin	–	1.0	0.34 ± 0.02
B1	7.7 ± 0.9	–	–
